Several values for one entry are separate records, joined by “and”; a condition that tells them apart may be missing. Equal values may be shown once.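 Briefly, cells in 96-well plates were exposed to five compound concentrations for 48 h, and endpoints were estimated by linear interpolation. GI50 = concentration required for 50% inhibition of growth. TGI: total growth inhibition.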 Where a SMILES comes first, the peptide text is derived from it. [ ]: non-standard residue; d: D form. The star is where a group is joined. ξ: configuration not given here. ξPhe(4-NO2) = NC(Cc1ccc([N+](=O)[O-])cc1)C(=O)O; Boc = CC(C)(C)OC(=O)* Bounds are passed on as bounds.

Test systems include EKVX NSCLC; UACC-257 melanoma; BT-549 breast; M14 melanoma; K-562 leukemia; SK-MEL-28 melanoma; NCI-H226 lung; UO-31 renal; HL-60(TB) leukemia; CAKI-1 renal.
Common to all, as to assay: NCI tumour cell line growth inhibition, 48 h

On to `CCOC(=O)c1csc(-c2nc(CCNC(=O)c3ccccc3)sc2Cl)n1`, for which the TGI with EKVX NSCLC, with UACC-257 melanoma, in the experiment with BT-549 breast, in the experiment with M14 melanoma, in the experiment with K-562 leukemia and with SK-MEL-28 melanoma was above 100 µM each time. Besides, the TGI in the experiment on NCI-H226 lung, with UO-31 renal and with HL-60(TB) leukemia was above 100 µM throughout.
With `COc1ncc(C#CC(=O)c2ccccc2)c(OC)n1`, the TGI is 9.16 µM in the experiment with EKVX NSCLC; 14.7 µM in the experiment on UACC-257 melanoma; 5.33 µM in the experiment with BT-549 breast; 10.5 µM in the experiment with M14 melanoma; 7.3 µM in the experiment on CAKI-1 renal; 11.4 µM with SK-MEL-28 melanoma. Further, the TGI turned out to be 5.46 µM with NCI-H226 lung, 5.44 µM with UO-31 renal and 4.68 µM with HL-60(TB) leukemia.
On to `CC(C)(C)OC(=O)N1CCC(NC(=O)NC2CCN(C(=O)OC(C)(C)C)CC2)CC1`, for which the TGI in the experiment with EKVX NSCLC is above 100 µM; in the experiment on UACC-257 melanoma it was above 100 µM; in the experiment on BT-549 breast, 12.6 µM; in the experiment on M14 melanoma it was above 100 µM; in the experiment on CAKI-1 renal, above 100 µM; in the experiment on SK-MEL-28 melanoma, above 100 µM. In addition, the TGI with UO-31 renal and in the experiment on HL-60(TB) leukemia was above 100 µM each time.
In the case of `Brc1ccc(C2CC3(c4ccccc4)ON=C(c4ccccc4)N3c3ccccc3S2)cc1` (configuration not stated), the TGI in the experiment with EKVX NSCLC, in the experiment on UACC-257 melanoma, with BT-549 breast, in the experiment with M14 melanoma, with K-562 leukemia and in the experiment on SK-MEL-28 melanoma was above 100 µM in each case. Further, the TGI in the experiment on NCI-H226 lung, in the experiment with UO-31 renal and in the experiment with HL-60(TB) leukemia was above 100 µM in each case.
With `Fc1cc2nc3n(c2cc1F)C(c1c(Cl)cccc1Cl)SC3` (configuration not stated), the TGI with EKVX NSCLC was found to be 32.5 µM; in the experiment with UACC-257 melanoma, 27 µM; in the experiment on BT-549 breast, 40.3 µM; with M14 melanoma, 29 µM; with CAKI-1 renal, 27.1 µM; in the experiment with SK-MEL-28 melanoma it was 28.6 µM. For the same compound, the TGI turned out to be 45.7 µM in the experiment with NCI-H226 lung, 29.3 µM in the experiment on UO-31 renal and 70.9 µM in the experiment with HL-60(TB) leukemia.
Turning to `COC1C(OC(C)=O)CC(=O)OC(C)C/C=C/C=C\C(O)C(C)CC(CC=O)C1OC1OC(C)C(OC2CC(C)(O)C(OC(=O)CC(C)C)C(C)O2)C(N(C)C)C1O` (configuration not stated), the TGI in the experiment on UACC-257 melanoma, in the experiment on BT-549 breast, with M14 melanoma, in the experiment with K-562 leukemia, with CAKI-1 renal and in the experiment on SK-MEL-28 melanoma was above 100 µM each time. Further, the TGI in the experiment on NCI-H226 lung, in the experiment with UO-31 renal and in the experiment on HL-60(TB) leukemia was above 100 µM each time. Also, the GI50 in the experiment on HL-60(TB) leukemia is 36.2 µM and > 100 µM.
As to `CC(=O)OCCCCn1cnc2c(Cl)nc(Nc3ccccc3)nc21`, the TGI in the experiment on EKVX NSCLC was above 100 µM; in the experiment on UACC-257 melanoma, above 100 µM; in the experiment with BT-549 breast, above 100 µM; in the experiment on K-562 leukemia it was above 100 µM; with CAKI-1 renal it was 62 µM; with SK-MEL-28 melanoma, above 100 µM. Moreover, the TGI in the experiment with NCI-H226 lung, with UO-31 renal and with HL-60(TB) leukemia was above 100 µM each time.
With `O=C1NC(N2CCCCC2)=N/C1=C\c1ccccc1`, the TGI in the experiment on EKVX NSCLC, in the experiment with UACC-257 melanoma, with BT-549 breast, with M14 melanoma, with CAKI-1 renal and in the experiment with SK-MEL-28 melanoma was above 100 µM in each case. Also, the TGI in the experiment with NCI-H226 lung, with UO-31 renal and in the experiment with HL-60(TB) leukemia was above 100 µM throughout.
Turning to `CCNC(=O)CNC(=O)C(Cc1ccc([N+](=O)[O-])cc1)NC(=O)OC(C)(C)C` (configuration not stated) (Boc-[ξPhe(4-NO2)]-Gly-NHEt), the TGI in the experiment with EKVX NSCLC, with BT-549 breast, in the experiment on M14 melanoma, in the experiment with K-562 leukemia, in the experiment with CAKI-1 renal and in the experiment with SK-MEL-28 melanoma was above 100 µM in each case. Besides, the TGI in the experiment on NCI-H226 lung, in the experiment with UO-31 renal and with HL-60(TB) leukemia was above 100 µM throughout.
On to `COC(=O)[C@]1(Cc2ccc3ccccc3c2)CCCCCCN1C(=O)c1ccccc1`, for which the TGI was above 50.9 µM in the experiment with EKVX NSCLC; 25 µM in the experiment with UACC-257 melanoma; above 54 µM in the experiment on BT-549 breast; above 52.7 µM with M14 melanoma; above 100 µM in the experiment on K-562 leukemia; above 52.1 µM with SK-MEL-28 melanoma. In addition, the values for the TGI in the experiment on NCI-H226 lung, with UO-31 renal and in the experiment on HL-60(TB) leukemia were above 52.8 µM, above 39.9 µM and above 40.4 µM, respectively.
Take `N#Cc1c2ccc([N+](=O)[O-])cc2c(=O)n2c1sc1ccccc12`: the TGI was above 100 µM in the experiment with UACC-257 melanoma; above 100 µM in the experiment on BT-549 breast; 29.5 µM in the experiment on K-562 leukemia; above 100 µM in the experiment on CAKI-1 renal; above 100 µM with SK-MEL-28 melanoma; 47.5 µM in the experiment with NCI-H226 lung. Moreover, the TGI in the experiment on UO-31 renal was determined as 72.7 µM; with HL-60(TB) leukemia, 66.1 µM.
As for `COc1cc2c3c(c1OC)C(=O)C(=O)C1=C3N(CCC1)CC2`, the TGI in the experiment on EKVX NSCLC is 64.8 µM; in the experiment on UACC-257 melanoma it was 67 µM; in the experiment on BT-549 breast it was 72.6 µM; with M14 melanoma, 70 µM; with K-562 leukemia it was 71.8 µM; in the experiment on CAKI-1 renal, above 100 µM. Moreover, the TGI was above 100 µM with SK-MEL-28 melanoma, above 100 µM in the experiment with UO-31 renal and 70.4 µM with HL-60(TB) leukemia.
`NS(=O)(=O)c1nnc(NC(=O)/C=C/C(=O)O)s1`: the TGI in the experiment with EKVX NSCLC, with UACC-257 melanoma, with BT-549 breast, in the experiment on M14 melanoma, in the experiment with K-562 leukemia and with CAKI-1 renal was above 100 µM in each case. For the same compound, the TGI in the experiment on SK-MEL-28 melanoma, in the experiment on UO-31 renal and in the experiment with HL-60(TB) leukemia was above 100 µM each time.
As to `O=C(Nc1nccs1)NS(=O)(=O)n1cnc2ccccc21`, the TGI in the experiment on EKVX NSCLC, in the experiment with UACC-257 melanoma, with BT-549 breast, in the experiment with M14 melanoma, in the experiment with CAKI-1 renal and with SK-MEL-28 melanoma was above 100 µM each time. The TGI with NCI-H226 lung, with UO-31 renal and in the experiment on HL-60(TB) leukemia was above 100 µM throughout.
Turning to `CC1(C)CC[C@]2(C(=O)O)CC[C@]3(C)C(=CC[C@@H]4[C@@]5(C)CC[C@H](OC6OC(CO)C(O)C(O)C6O)C(C)(C)[C@@H]5CC[C@]43C)[C@@H]2C1` (some centres not stated), the TGI in the experiment on UACC-257 melanoma was 3.13 µM; in the experiment with BT-549 breast, 2.59 µM; in the experiment on M14 melanoma, 3.12 µM; in the experiment on K-562 leukemia, 3.67 µM; in the experiment on CAKI-1 renal it was 5.93 µM; in the experiment on SK-MEL-28 melanoma, 3.69 µM. Moreover, the TGI in the experiment on NCI-H226 lung is 3.4 µM; in the experiment with UO-31 renal it was 3.1 µM; in the experiment on HL-60(TB) leukemia, 3.83 µM.
For `COc1cc(C2SCC(=O)N2NC(=O)c2ccc(NC(C)=O)cc2OC)ccc1O` (configuration not stated), the TGI with EKVX NSCLC, with BT-549 breast, in the experiment with M14 melanoma, with K-562 leukemia, with CAKI-1 renal and in the experiment with SK-MEL-28 melanoma was above 100 µM throughout. Also, the TGI in the experiment on UO-31 renal and in the experiment on HL-60(TB) leukemia was above 100 µM each time.
For `CNC(=O)OCC1=C(COC(=O)NC)C(C)N(c2ccccc2)C1` (configuration not stated), the TGI was above 100 µM in the experiment with EKVX NSCLC; above 100 µM in the experiment on UACC-257 melanoma; above 100 µM in the experiment with BT-549 breast; 65.8 µM in the experiment with M14 melanoma; 72 µM in the experiment on K-562 leukemia; above 100 µM in the experiment on SK-MEL-28 melanoma. In addition, the TGI was 77.3 µM in the experiment on NCI-H226 lung, above 100 µM in the experiment on UO-31 renal and 47 µM in the experiment on HL-60(TB) leukemia.
Turning to `OC[C@@H](O)[C@H](O)[C@@H](O)/C=N/Nc1ccc(Cl)nn1`, the TGI with EKVX NSCLC, in the experiment with UACC-257 melanoma, with BT-549 breast, in the experiment on M14 melanoma, with CAKI-1 renal and in the experiment with SK-MEL-28 melanoma was above 100 µM throughout. In the experiment with HL-60(TB) leukemia, this compound registered a TGI above 100 µM.
Turning to `CN(C)c1c(C2CC(O)C(CO)O2)c(=O)c1=O` (configuration not stated), the TGI in the experiment on EKVX NSCLC, in the experiment on UACC-257 melanoma, in the experiment with BT-549 breast, with M14 melanoma, in the experiment on K-562 leukemia and in the experiment with SK-MEL-28 melanoma was above 100 µM in each case. Further, the TGI in the experiment on NCI-H226 lung, in the experiment with UO-31 renal and in the experiment on HL-60(TB) leukemia was above 100 µM throughout.
Turning to `CO/N=C(\C(=O)[N-][n+]1cnn(CC(=O)O)c1)c1csc(N)n1`, the TGI with EKVX NSCLC, in the experiment on UACC-257 melanoma, in the experiment on BT-549 breast, in the experiment with M14 melanoma, with K-562 leukemia and with CAKI-1 renal was above 10 µM throughout. Also, the TGI with SK-MEL-28 melanoma and in the experiment with HL-60(TB) leukemia was above 10 µM in each case.
For `CCNC1=C(NC(=O)CCl)C(=O)c2ccccc2C1=O`, the TGI in the experiment on EKVX NSCLC was 29.6 µM; with UACC-257 melanoma, above 10 µM; in the experiment with BT-549 breast it was above 10 µM; with M14 melanoma, 42.6 µM; in the experiment on K-562 leukemia, above 100 µM; with SK-MEL-28 melanoma, 31.7 µM. For the same compound, the TGI in the experiment with NCI-H226 lung was 48.2 µM; in the experiment with HL-60(TB) leukemia, 88.9 µM.
For `NC(Cc1ccc(O)cn1)C(=O)O` (configuration not stated), the TGI with EKVX NSCLC, in the experiment with UACC-257 melanoma, in the experiment with BT-549 breast, in the experiment on K-562 leukemia, in the experiment with CAKI-1 renal and in the experiment on SK-MEL-28 melanoma was above 100 µM in each case. Further, the TGI with NCI-H226 lung, in the experiment with UO-31 renal and with HL-60(TB) leukemia was above 100 µM in each case.

The record behind these values is PubChem BioAssay (NCI).
